Data on 59 molecules can be found in the METLIN SMRT retention time set (Domingo-Almenara et al. 2019).

Molecules are shown by their SMILES.

This data set can be described thus: gradient 5% acetonitrile 3 min, to 50% in 2 min, to 85% in 15 min, held 3 min, 100 µL/min. Particulars: column: Zorbax Extend-C18 2.1 x 50 mm; eluents: water / acetonitrile, 0.1% formic acid. In short, it runs like this:
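A Zorbax Extend-C18 column (2.1 × 50 mm, 1.8 μm) run at 100 μL/min with water and acetonitrile, both containing 0.1% formic acid, separated mixtures of ~100 pure standards. The HPLC was coupled to a quadrupole time-of-flight mass spectrometer operated in positive and negative ionization mode, with dead and dwell volumes of 40 μL and 900 μL. Each retention time was taken from a computationally picked adduct peak that was then manually inspected.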
For `CCc1ccc(N2CC(c3noc(-c4ccccc4Cl)n3)CC2=O)cc1` (centres undefined), the RP-LC retention time is 1050 s.
Next, `Cn1cc(CCNC(=O)CSc2ccccc2)c2cccnc21`: 686 s; `COc1cccc(-c2noc(Cn3c(=O)n(C(C)C)c(=O)c4ccccc43)n2)c1`: 1110 s; `CCN1C(=O)COc2ccc(-c3noc(/C=C/c4ccc(C)cc4)n3)cc21`: 1230 s.
Take `O=C(c1ccccc1Cl)N(CCc1ccccc1)Cc1ccccn1`: the RP-LC retention time was found to be 790 s.
Under `COC(=O)c1c(C)[nH]c(C(=O)N2CCC(CC(=O)NC(C)c3ccccc3)CC2)c1C` (centres undefined) stands 762 s; under `CC(=O)N1CCc2cc(-c3ccc(C(=O)NCCCN4CCCCC4C)cc3)ccc21` (centres undefined), 616 s; under `Cc1csc(-c2csc(S(=O)(=O)N(C)Cc3ccccc3)c2)n1`, 1090 s.
`Cc1ccc(S(=O)(=O)N2C[C@@H](F)C[C@H]2C(=O)N2CCCCC2)c(C)c1` yielded an RP-LC retention time of 874 s.
In turn, `CC(C)N1C(=O)c2cccnc2Sc2cc(NC(=O)COc3ccc(F)cc3)ccc21` showed an RP-LC retention time of 894 s.
Molecule `CC(C)NC(=O)C1Cc2cc(C(F)(F)F)ccc2N2CCN(c3ccccc3Cl)CC12` (centres undefined) gave an RP-LC retention time of 1200 s.
Next, `COc1ccc(CNC(=O)C2CCCN(S(=O)(=O)c3ccc(OC)c(Cl)c3)C2)cc1` (centres undefined): 917 s.
`Cc1ccccc1Nc1c(-c2cccc(Cl)c2)nc2ccc(Br)cn12` gave an RP-LC retention time of 1120 s.
Next, `COc1ccc(-c2cn3c(CC(=O)Nc4ccc(F)c(Cl)c4)csc3n2)cc1`: 832 s; `Cc1cccc(NS(=O)(=O)c2cc(-c3[nH]ncc3C(=O)N3CCCCC3)oc2C)c1C`: 822 s; `CCc1ccccc1NC(=O)Cc1csc2nc(-c3ccccc3)cn12`: 845 s.
`COc1cccc(-c2ccc(=O)n(CCc3nc(-c4ccc(Br)cc4)no3)n2)c1` gave an RP-LC retention time of 1110 s.
Next, `CCc1nc2cc(N3CCCC(C(=O)NCCN4CCN(C)CC4)C3)cnc2nc1CC` (centres undefined): 583 s.
The molecule `CC(=O)N1CCC(c2noc(-c3ccccn3)n2)C1` (centres undefined) yielded an RP-LC retention time of 596 s.
In turn, `CCc1cc(=O)n(CC(=O)Nc2ccc(F)cc2C)c(N2CCOCC2)n1` returned an RP-LC retention time of 760 s.
Take `O=C(Cn1c(=O)c2cccn2c2ccc(F)cc21)NCCc1ccco1`: the RP-LC retention time turned out to be 774 s.
Turning to `COC[C@@H]1CN(Cc2c(C)n[nH]c2C)C[C@H]1c1ccccn1`, the RP-LC retention time is 558 s.
Under `CCc1nc2cc(-c3noc(COc4ccc(OC)cc4)n3)ccc2o1` stands 1070 s; under `CCOC(=O)c1[nH]c(C)c(C(=O)C(C)N(C(=O)c2cccc(F)c2)C2CC2)c1C` (centres undefined), 988 s.
Under `O=C(NCc1ccc(Cl)cc1)c1cn2c(n1)CCCC2` stands 621 s; under `CCC1Oc2ccc(S(=O)(=O)N3CCC(C(=O)N4CCCC4)CC3)cc2NC1=O` (centres undefined), 730 s.
Under `CC(C)CNC(=O)N1CCC(c2noc(-c3ccccc3)n2)C1` (centres undefined) stands 846 s; under `CC1CCCN(CC2CCN(C(=O)Nc3ccc(F)cc3)CC2)C1` (centres undefined), 608 s; under `O=C(NCc1ccco1)c1cc(-c2cccnc2)nc2ccc(Cl)cc12`, 788 s.
`CCOC(=O)c1c(C)oc2ncnc(N3CCc4cc(OC)c(OC)cc4C3C)c12` (centres undefined): the RP-LC retention time came out at 981 s.
On to `Cc1oc(-c2[nH]ncc2C(=O)N(C)C)cc1S(=O)(=O)Nc1ccccc1`, for which the RP-LC retention time turned out to be 609 s.
Next, `CCc1ccc(OCC(=O)N(Cc2ccc(Br)o2)C2CCS(=O)(=O)C2)cc1` (centres undefined): 963 s; `Cc1ccc(N2CC(c3noc(-c4ccsc4)n3)CC2=O)cc1` (centres undefined): 932 s; `Cc1oc(-c2[nH]ncc2C(=O)N2CCCC2)cc1S(=O)(=O)Nc1cccc(Cl)c1`: 741 s.
Molecule `Cc1ccc(C(=O)N2CCCCC2c2nncn2CC2CC2)cn1` (centres undefined) displayed an RP-LC retention time of 575 s.
Regarding `CCCOc1ccc(CN2C[C@@H](CO)[C@H](c3ccncc3)C2)cc1OC`, the RP-LC retention time was 557 s.
Next, `CCOC(=O)c1ccc(Nc2c(-c3cccc(Br)c3)nc3cnccn23)cc1`: 986 s.
`CCOC(=O)c1[nH]c(C)c(CCC(=O)N2CCC(C(=O)NCc3ccc(F)cc3)CC2)c1C` registered an RP-LC retention time of 785 s.
Under `CCN(CC)CCNC(=O)C1CCN(C2=NS(=O)(=O)C(c3ccc(C)c(C)c3)=C2C)CC1` stands 666 s.
Under `CC1=C(c2ccccc2)S(=O)(=O)N=C1N1CCCN(C(=O)Cn2ccnc2C)CC1` stands 589 s; under `Cc1ccc(-n2nnnc2CN2CCN(S(=O)(=O)N(C)C)CC2)cc1`, 756 s; under `Cc1ccc(Nc2nc(N)nc(CN3CCC(C(N)=O)CC3)n2)cc1`, 565 s.
`CO[C@@H](Cc1ccc(OCCc2nc(-c3ccccc3)oc2C)c2ccsc12)C(=O)O` yielded an RP-LC retention time of 1160 s.
Next, `CCn1ccc2sc(C)c(C(=O)NCc3ccc(OC)c(OC)c3)c2c1=O`: 716 s; `COc1cccc(C(=O)NC2(C(F)(F)F)C(=O)N(C3CCCCC3)C(C)=C2C(C)=O)c1` (centres undefined): 987 s.
Under `CC(=O)c1cc2c(cc1NC(=O)c1cn(Cc3ccc(C)cc3)nn1)OCO2` stands 1030 s; under `CCOC(=O)N1CCN(c2cc(C(=O)O)c3cc(NC(=O)Cc4ccc(OC)cc4)ccc3n2)CC1`, 634 s; under `COc1cccc(NC(=O)Cn2nc3c(Oc4ccc(Cl)cc4)nccn3c2=O)c1`, 877 s.
Under `CCOCC(=O)N1CCC2(CC1)CC(O)(CC)CCO2` (centres undefined) stands 614 s; under `Fc1ccc(Cc2noc(-c3nc(-c4ccccc4)no3)n2)cc1`, 1160 s.
As for `CCCN1CCCCc2cc(C(=O)NCC(N)=O)sc21`, the RP-LC retention time was found to be 686 s.
Regarding `COc1ccc(-n2ncc3c(=O)n(Cc4nc(-c5ccc(F)cc5)no4)cnc32)cc1`, the RP-LC retention time came to 1030 s.
As for `CCn1cc(-c2nc(C)c(C(=O)NCc3ccc(F)cc3)s2)c2cccnc21`, the RP-LC retention time was determined as 902 s.
Under `COC(=O)c1sc2cccc(F)c2c1S(=O)(=O)N1CCN(c2ccccn2)CC1` stands 725 s; under `CCOC(=O)c1nn(-c2ccccc2C)c(=O)cc1NCc1ccc2c(c1)OCO2`, 874 s.
In turn, `CCn1nccc1-c1cccc(-c2noc(C3CC(=O)N(c4ccc(C)c(C)c4)C3)n2)c1` (centres undefined) gave an RP-LC retention time of 1080 s.
As for `CSc1ccc(Cl)c(C(=O)Nc2cccn3c(C4CCC4)nnc23)c1`, the RP-LC retention time is 911 s.
`Cc1cc(C)cc(Nc2c(C(=O)N3CCCC(C)C3)cnc3nc(C)ccc23)c1` (centres undefined): the RP-LC retention time came to 672 s.
Molecule `Cc1ccc(S(=O)(=O)N2CCc3nn(CC(C)C)c(=O)n3CC2)cc1Cl` returned an RP-LC retention time of 880 s.
